From patent US6589762B1, “Calcafluor screen for chitin biosynthesis inhibitors” (priority 1993, dated 2003)

Assays:
Aspergillus nidulans = experiment: Calcofluor rescue with filamentous fungus instead of S. cerevisiae; format: cell-based; conditions: very high calcofluor concentrations
Text: (§1) Attempts are made to replace S. cerevisiae with several species of filamentous fungi, including Neurospora crassa, Aspergillus nidulans, Botrytis cinerea, Pseudocercosporella herpotrichoides, but all the species respond differently from S. cerevisiae. N. crassa and A. nidulans require very high concentrations of calcofluor to inhibit growth.

Neurospora crassa = experiment: as above; format: cell-based; conditions: very high calcofluor concentrations
Text: as §1

[1] = test system: Saccharomyces cerevisiae strain Y294; experiment: Calcofluor rescue screen (disk or well diffusion); format: cell-based; conditions: disk diffusion assay, 20 μg/disk, 30° C., two days
Procedure: A preferred method comprises adding a test sample to a Saccharomyces cerevisiae culture containing calcofluor white or a calcofluor white derivative. The test sample is introduced to a disk or a well on a culture plate in a standard diffusion assay using solidified media, or introduced into one of a series of equivalent tissue culture tubes or bottles in a standard turbidity assay using liquid media. The culture is incubated for such time under such conditions sufficient to observe yeast cell growth inhibition in a corresponding culture or culture plate area containing calcofluor white but no test sample. The extent of growth of the culture containing or surrounding the test sample is compared with the extent of growth in the culture or culture area containing no test sample. The presence of chitin synthesis inhibition is determined by observing whether growth in the presence of test sample exceeds growth in its absence. In a culture plate, this is a turbid zone of growth surrounding the test sample. In a culture tube series, this is enhanced turbidity.
autoclaving at 20 lbs for 15 min. Strain Y294 having genotype MATα leu2-3,112 ura3-52 his3Δ trp1 GAL+[CIR+] inoculated into this liquid media and grown overnight, an OD600 of ˜5 or greater, while being shaken at 30° C.
The plates are poured and test samples are placed on the plates. A ¼″ disk containing […] of nikkomycin Z is used as a positive control. The plates are incubated at 30° C. for two days and then examined for activity. Actives produce a turbid zone surrounding the test sample.
All compounds are tested by disk diffusion assay using the method of this invention at a rate of 20 μg/disk.

Botrytis cinerea = experiment: Calcofluor rescue with filamentous fungus instead of S. cerevisiae; format: cell-based; conditions: does not grow in the media
Text: as §1

[2] = test system: Pseudocercosporella herpotrichoides; experiment: as above; format: cell-based; conditions: does not grow in the media
Text: as §1

[3] = test system: selected phytopathogenic fungi (Pseudocercosporella herpotrichoides, Rhizoctonia solani, Fusarium oxysporum); experiment: In vitro fungicide discovery screen (growth in nutrient agar); format: cell-based; conditions: 10 μg/ml concentration range; especially against Rhizoctonia
Procedure: Standard in vitro and in vivo fungicide discovery screens are employed as tertiary tests to prioritize actives from the calcofluor rescue screen and the secondary screens. […] These include fungi causing wheat eyespot (Pseudocercosporella herpotrichoides), rice sheath blight (Rhizoctonia solani) and damping off (Fusarium oxysporum); all synthesize chitin-containing cell walls. High potency fungicides are active against these species in the 10 ppm range (10 μg/ml), while nikkomycin Z can be detected at ˜70 μg/ml in the calcofluor rescue assay if 30 μl volumes are tested in welled plates.

Chs3 = biological target: T1, Chs3 (Saccharomyces cerevisiae, UniProt P29465); experiment: In vitro chitin synthase enzyme assay (incorporation of UDP-14C-N-acetylglucosamine); format: biochemical
T1 construct: To assay Chs3 activity, membranes from cells lacking Chs1 and, preferably, Chs2 are prepared; endogenous in cells; host or cells: S. cerevisiae strains ECY36-3C, JW17-11/1A/FOA or SSY640-10A (crude membrane fraction)
T1 sequence (P34226 1-693): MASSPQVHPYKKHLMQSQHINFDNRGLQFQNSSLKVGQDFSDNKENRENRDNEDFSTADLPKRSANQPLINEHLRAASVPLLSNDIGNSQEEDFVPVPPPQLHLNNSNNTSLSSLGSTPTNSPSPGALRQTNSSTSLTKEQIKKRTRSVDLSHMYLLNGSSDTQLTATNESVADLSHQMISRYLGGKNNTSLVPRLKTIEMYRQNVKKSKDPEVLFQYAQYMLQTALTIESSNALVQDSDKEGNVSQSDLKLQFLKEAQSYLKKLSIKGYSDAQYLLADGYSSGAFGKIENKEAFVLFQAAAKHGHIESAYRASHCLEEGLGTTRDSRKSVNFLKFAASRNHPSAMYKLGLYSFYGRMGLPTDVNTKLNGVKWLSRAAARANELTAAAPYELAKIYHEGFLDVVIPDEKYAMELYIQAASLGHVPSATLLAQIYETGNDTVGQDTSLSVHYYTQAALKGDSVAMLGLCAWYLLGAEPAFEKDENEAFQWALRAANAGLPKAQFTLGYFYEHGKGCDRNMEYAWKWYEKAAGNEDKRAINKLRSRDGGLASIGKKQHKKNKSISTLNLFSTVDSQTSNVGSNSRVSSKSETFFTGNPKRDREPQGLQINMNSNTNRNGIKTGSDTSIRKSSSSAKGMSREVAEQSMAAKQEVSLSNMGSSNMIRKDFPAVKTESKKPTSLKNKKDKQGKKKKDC
T1 sequence (P29465 whole entry): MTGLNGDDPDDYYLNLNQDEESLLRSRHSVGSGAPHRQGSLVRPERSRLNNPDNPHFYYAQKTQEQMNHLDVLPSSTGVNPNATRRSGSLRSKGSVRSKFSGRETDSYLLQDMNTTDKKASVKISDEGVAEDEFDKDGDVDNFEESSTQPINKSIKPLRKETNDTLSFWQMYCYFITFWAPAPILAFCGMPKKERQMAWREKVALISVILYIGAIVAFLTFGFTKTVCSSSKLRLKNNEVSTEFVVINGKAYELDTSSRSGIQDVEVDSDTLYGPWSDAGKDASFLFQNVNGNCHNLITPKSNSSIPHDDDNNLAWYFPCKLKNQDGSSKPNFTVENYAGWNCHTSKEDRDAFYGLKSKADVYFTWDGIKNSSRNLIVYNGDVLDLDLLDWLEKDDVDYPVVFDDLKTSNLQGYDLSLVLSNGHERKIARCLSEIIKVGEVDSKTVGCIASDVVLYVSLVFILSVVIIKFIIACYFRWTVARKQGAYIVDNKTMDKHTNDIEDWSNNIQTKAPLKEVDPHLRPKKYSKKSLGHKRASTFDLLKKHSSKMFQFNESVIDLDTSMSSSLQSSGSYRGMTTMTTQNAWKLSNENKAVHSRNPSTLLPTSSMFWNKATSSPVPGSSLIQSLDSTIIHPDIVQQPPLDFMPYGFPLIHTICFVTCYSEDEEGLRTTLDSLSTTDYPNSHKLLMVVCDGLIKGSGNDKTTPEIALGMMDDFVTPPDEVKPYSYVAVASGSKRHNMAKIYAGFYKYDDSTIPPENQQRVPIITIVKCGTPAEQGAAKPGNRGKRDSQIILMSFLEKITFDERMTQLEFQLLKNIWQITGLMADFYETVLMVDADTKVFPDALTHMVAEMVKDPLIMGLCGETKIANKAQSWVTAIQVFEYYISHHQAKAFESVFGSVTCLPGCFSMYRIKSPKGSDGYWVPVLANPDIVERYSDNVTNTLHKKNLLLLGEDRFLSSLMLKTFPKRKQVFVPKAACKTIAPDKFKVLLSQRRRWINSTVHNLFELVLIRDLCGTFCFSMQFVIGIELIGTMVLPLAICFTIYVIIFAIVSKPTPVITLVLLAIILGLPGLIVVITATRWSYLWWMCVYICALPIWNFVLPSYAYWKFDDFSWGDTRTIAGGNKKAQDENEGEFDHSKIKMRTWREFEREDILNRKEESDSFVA
Procedure: In Vitro Secondary Screens. These enzyme assays detect inhibition of individual chitin synthase isozymes Chs1, Chs2, and Chs3 by monitoring the incorporation of radioactive chitin precursor uridine diphospho-N-acetyl glucosamine into acid precipitable counts (i.e., chitin).
To assay Chs3 activity, membranes from cells lacking Chs1 and, preferably, Chs2 are prepared by a modification of the method of Orlean, P. cited above. Strain ECY36-3C, JW17-11/1A/FOA or SSY640-10A are inoculated into YEPD, and the culture is shaken at 30° C. Cells are harvested while still growing exponentially, e.g., at O.D.600 of ˜0.4 as measured in a Guilford Response™ spectrophotometer, washed once in 50 mM Tris-HCl, pH 7.5, containing 0.01 mM EDTA and 1 mM DTT (1,4-dithiothreitol), and resuspended in about 3 volumes of this buffer. Glass beads of about 200 to 300 micron diameter are added to just below the meniscus of the suspension, and cells are shaken by vortexing or in a Bead-Beater™ until lysis occurs, which is monitored microscopically. During this procedure, the cell suspension is kept below 10° C. by cooling in ice. The extract is collected, the glass beads are washed with the same buffer, and the wash is added to the extract. The volume is adjusted to about 20 original volumes with the same buffer.
The cell walls and debris are removed by a 10 minute centrifugation at about 3000×g. The samples are centriuged at 100,000×g for 40 minutes at 4° C. The membrane pellets are resuspended in about one original volume 50 mM Tris-HCl, pH 7.5 containing 0.01 mM EDTA which may contain 33% glycerol, and subjected to Dounce homogenization.
Ten μl of membranes are incubated with shaking in the presence of putative inhibitors in a standard 50 μl assay mixture containing 1 mM uridine diphospho-(^14C)-N-acetyl-glucosamine (400,000 cpm/μmole), 40 mM N-acetylglucosamine, 50 mM Tris-HCl, pH 7.5, and 5 mM MgCl2 at 25° C. The reaction is stopped after 90 minutes by addition of 10% trichloroacetic acid, and the amount of product quantified by filtration and scintillation counting.

Row | SMILES | growth in calcofluor culture (Aspergillus nidulans) | growth in calcofluor culture (Neurospora crassa) | activity in the calcofluor rescue screen (turbid zone of growth) [1] | rescue from calcofluor (Botrytis cinerea) | rescue from calcofluor [2] | activity against phytopathogenic fungi [3] | % Chs3 Activity (Chs3; 10 μM inhibitor) | % Chs3 Activity (Chs3; 30 μM inhibitor) | % Chs3 Activity (Chs3; 90 μM inhibitor)
1 | Nc1nc(=O)[nH]cc1F [5-F-cytocine, 5-fluoro-cytosine] | extensive growth | extensive growth |  |  |  |  |  |  | 
2 | NC(=O)OC[C@H](O)[C@@H](O)[C@H](N)C(=O)N[C@H](C(=O)O)[C@H]1O[C@@H](n2cc(C(=O)O)c(=O)[nH]c2=O)[C@H](O)[C@@H]1O [polyoxin D] | extensive growth | extensive growth | inactive | no rescue | no rescue | excellent activity | 100% | ˜40% | ˜16%
3 | CCC(CC)Nc1c([N+](=O)[O-])cc(C)c(C)c1[N+](=O)[O-] [prowl] | extensive growth | extensive growth |  |  |  |  |  |  | 
4 | COC(=O)c1ccccc1S(=O)(=O)NC(=O)Nc1nc(C)cc(C)n1 [sulfometuron methyl] | extensive growth | extensive growth |  |  |  |  |  |  | 
